Patent US9364496B2 (ONCOGENEX TECHNOLOGIES INC., priority 2013, dated 2016)
“And” between values parts separate entries of the source, which are not always exact repeats. Equal entries are not always repeated. Where two headings read alike, the source gives them in different places. Marks after values point to notes of the source that are not given here. Oligonucleotides are written 5' to 3', each unit as a sugar letter and its base; * is a phosphorothioate linkage, no mark a phosphodiester; rarer units and linkages stand in square brackets, end groups in braces. Plain capitals give the bases only. e = 2'-O-(2-methoxyethyl) (MOE); [5mC] = 5-methylcytosine; d = 2'-deoxy (DNA)

What was measured:
[1] = human, in vivo
[2] = in vivo
melanoma = type: in vivo, human; conditions: each group; loading doses then custirsen with a chemotherapeutic agent
From the text: At least 50 melanoma patients are separated into two groups.

myeloma = type: in vivo, human; conditions: each group; loading doses then custirsen with a chemotherapeutic agent
From the text: At least 50 myeloma patients are separated into two groups.

[3] = tested on: RPMI 8226 (human myeloma) xenograft; assay: In vivo activity of custirsen (TV-1011), different doses and regimens with Bortezomib, RPMI 8226 xenograft (Example 15); conditions: for volume / weight / % of baseline (weight) / Δ % (weight) / Δ weight: group 8: TV-1011 30 mg/kg qd*5, 40 mg/kg biwk
Description: 120 CB.17 SCID female mice, 4-6 weeks old, 16-20 grams, obtained from Harlan animal breeding center.
Cells (originated from ATCC) were cultured on RPMI medium. Cell suspension was centrifuged and resuspended in 50% Matrigel/HBSS to a final concentration of 7×10^7 cells/ml. The suspension was implanted s.c. in the right flank of the anesthetized mouse at a volume of 100 μl.
Seven ml saline were added to the original vial containing 3.5 mg powder resulting in 0.5 mg/ml. Three ml of this solution were added to 27 ml saline to receive 0.05 mg/ml concentration. […] 28.5 ml of 4 mg/ml were added to 9.5 saline to receive 3 mg/ml.
Mice were implanted subcutaneously, with 7×10^6 RPMI 8226 cells/mouse (in 50% Martigel/HBSS) on Day 0. On day 21, mice were sorted by the optimal average tumor volume (˜130 mm3) and were allocated into eight groups of 10 mice each.
The treatment started on day 21 post implant, 0.2 ml per 20 grams v/w.
[formula] The analysis of weight gain and tumor volume progression was made using one-way ANOVA followed by Tukey post-hoc comparisons.

[4] = Custirsen up-titration with dexamethasone premedication, tolerability and ECG Holter (discussion); conditions: with or without premedication with dexamethasone
renal cancer = type: in vivo, human; conditions: each group; loading doses then custirsen with a chemotherapeutic agent
From the text: At least 50 renal cancer patients are separated into two groups.

[5] = TV-1011 alone 30 mg/kg ip qd*5, then 40 mg/kg biwk, day 62
[6] = Day 21 (baseline), group Mean, n 10
[7] = Day 21 (baseline), individual animals
[8] = Day 28 vs Day 21, group Mean, n 10
[9] = Day 28 vs Day 21, individual animals
[10] = Day 33 vs Day 21, group Mean, n 10
[11] = Day 33 vs Day 21, individual animals
[12] = Day 41 vs Day 21, group Mean, n 10
[13] = Day 41 vs Day 21, individual animals
[14] = group mean, n=10, day block 1 of 3
[15] = group mean, n=10, day block 2 of 3
[16] = group mean, n=10, day block 3 of 3
[17] = individual animals, day block 1 of 3
[18] = individual animals, day block 2 of 3
[19] = individual animals, day block 3 of 3

For “Custirsen: anti-clusterin antisense oligonucleotide CAGCAGCAGAGTCTTCATCAT, phosphorothioate backbone, 2′-O-methoxyethyl at nucleotides 1-4 and 18-21, 5-methylcytosines at 1, 4, 19 (antisense e[5mC]*eA*eG*e[5mC]*dA*dG*dC*dA*dG*dA*dG*dT*dC*dT*dT*dC*dA*eT*e[5mC]*eA*eT; listed as Homo sapiens)”, the INR values [1] was ≤ 1.5, the “grade 1 increase in PTT, number” value [1] was 1 and the hepatic transaminase elevations [1] was “Grade 1 and 2”. The “incidence of elevated liver function tests (ELFTs)” value [1] was “higher incidence”, the INR values [2] was ≤ 1.5 and the “reports of grade 2 toxicity for PTT” value [2] was 2 reports. For the same substance, the “cancer condition of patients” value (melanoma) was “improves”, the “cancer condition of patients” value (myeloma) was “improves” and the “efficacy, in words” value ([3]; Custirsen 30 mg/kg qdx5 then 40 mg/kg biwk, alone) was “very efficacious”. The “effect of continuous treatment versus loading only” value ([3]; Custirsen with Velcade, maintained vs loading only) was “dose-dependent and results in better outcome versus loading only”, the “Max BW (mean) reduction” value ([3]; TV-1011 alone 30 mg/kg ip qd*5, then 40 mg/kg biwk, day 28) was −0.5% and the “% TGI” value [3, 5] was 67%. For the same substance, the “No. of CR” value [3, 5] was 0, the “No. of PR” value [3, 5] was 1 and the “No. of TRD” value [3, 5] was 0. For the same substance, the “No. og nTRD” value [3, 5] was 0, the “Δ mean tumor volume, (mean ± se)” value [3, 5] was 574 ± 118 and the “% TGI” value ([3]; TV-1011 alone 30 mg/kg ip qd*5, then 40 mg/kg biwk, day 62, listed as TV-1011) was 67*** %. For the same substance, the volume [3, 6] was 129.3, the weight [3, 6] was 18.8 and the volume [3, 7] was 107 and 113 and 116 and 119 and 123 and 128 and 131 and 138 and 147 and 172. The weight [3, 7] was 21.4 and 17.7 and 20.5 and 15.9 and 19.6 and 20.3 and 17.9 and 16.6 and 20.1 and 17.8, the “% of baseline (weight)” value ([3]; Day 28, group Mean, n 10) was 99.5% and the volume ([3]; Day 28, group Mean, n 10) was 158.1. The weight ([3]; Day 28, group Mean, n 10) was 18.7, the “% of baseline (weight)” value ([3]; Day 28, individual animals) was 98.0% and 104.0% and 102.6% and 95.2% and 96.9% and 94.4% and 103.0% and 98.7% and 98.3% and the volume ([3]; Day 28, individual animals) was 78 and 127 and 114 and 149 and 180 and 204 (2×) and 159 and 175 and 193. The weight ([3]; Day 28, individual animals) was 21.0 and 118.5 and 21.3 and 16.3 and 18.7 and 19.6 and 16.9 and 17.1 and 19.9 and 17.5, the “Δ % (weight)” value [3, 8] was −0.5% and the Δ weight [3, 8] was −0.1. The “Δ % (weight)” value [3, 9] was −2.0% and 4.4% and 4.0% and 2.6% and −4.8% and −3.1% and 5.6% and 3.0% and −1.3% and −1.7%, the Δ weight [3, 9] was −0.4 and 0.8 (2×) and 0.4 and −0.9 and −0.6 and −1.0 and 0.5 and −0.3 (2×) and the “% of baseline (weight)” value ([3]; Day 33, group Mean, n 10) was 101.6%. For the same substance, the volume ([3]; Day 33, group Mean, n 10) was 147.0, the weight ([3]; Day 33, group Mean, n 10) was 19.1 and the “% of baseline (weight)” value ([3]; Day 33, individual animals) was 97.8% and 108.3% and 108.1% and 95.9% and 94.0% and 101.3% and 98.3% and 105.5% and 99.9% and 107.3%. For the same substance, the volume ([3]; Day 33, individual animals) was 132 and 131 and 120 and 116 and 167 and 157 and 100 and 154 and 206 and 186, the weight ([3]; Day 33, individual animals) was 20.9 and 19.2 and 22.1 and 15.2 and 18.4 and 20.5 and 17.6 and 17.5 and 20.1 and 19.1 and the “Δ % (weight)” value [3, 10] was 1.6%. The Δ weight [3, 10] was 0.3, the “Δ % (weight)” value [3, 11] was −2.2% and 8.3% and 8.1% and −4.1% and −6.0% and 1.3% and −1.7% and 5.5% and −0.1% and 7.3% and the Δ weight [3, 11] was −0.5 and 1.5 and 1.7 and −0.6 and −1.2 and 0.3 and −0.3 and 0.9 and 0.0 and 1.3. For the same substance, the “% of baseline (weight)” value ([3]; Day 41, group Mean, n 10) was 106.8%, the volume ([3]; Day 41, group Mean, n 10) was 184.3 and the weight ([3]; Day 41, group Mean, n 10) was 20.0. The “% of baseline (weight)” value ([3]; Day 41, individual animals) was 101.4% and 112.9% and 111.2% and 108.4% and 102.9% and 102.3% and 105.9% and 112.3% and 106.7% and 103.9%, the volume ([3]; Day 41, individual animals) was 76 and 144 and 140 and 139 and 336 and 249 and 152 and 185 and 223 and 200 and the weight ([3]; Day 41, individual animals) was 21.7 and 20.0 and 22.8 and 17.2 and 20.2 and 20.7 and 18.9 and 18.7 and 21.5 and 18.5. The “Δ % (weight)” value [3, 12] was 6.8%, the Δ weight [3, 12] was 1.2 and the “Δ % (weight)” value [3, 13] was 1.4% and 12.9% and 11.2% and 8.4% and 2.9% and 2.3% and 5.9% and 6.7% and 3.9%. The Δ weight [3, 13] was 0.3 and 2.3 (2×) and 1.3 (2×) and 0.6 and 0.5 and 1.1 and 2.0 and 0.7, the “% of baseline (weight)” value [3, 14] was 113.8% and the volume [3, 14] was 344.4. For the same substance, the “Δ % (weight)” value [3, 14] was 13.8%, the Δ weight [3, 14] was 2.5 and the weight ([3]; group mean, n=10, day block 1 of 3 (day head not shown)) was 21.3. For the same substance, the “% of baseline (weight)” value [3, 15] was 109.2%, the volume [3, 15] was 476.6 and the weight [3, 15] was 20.4. For the same substance, the “Δ % (weight)” value [3, 15] was 9.2%, the Δ weight [3, 15] was 1.7 and the “% of baseline (weight)” value [3, 16] was 111.5%. For the same substance, the volume [3, 16] was 702.9, the weight [3, 16] was 20.9 and the “Δ % (weight)” value [3, 16] was 11.5%. For the same substance, the Δ weight [3, 16] was 2.1, the “% of baseline (weight)” value [3, 17] was 108.5% and 116.7% and 112.9% and 120.7% and 110.1% and 107.6% and 114.4% and 123.3% and 115.7% and 108.4% and the volume [3, 17] was 101 and 360 and 268 and 267 and 556 and 581 and 211 and 257 and 451 and 392. The “Δ % (weight)” value [3, 17] was 8.5% and 16.7% and 12.9% and 20.7% and 10.1% and 7.6% and 14.4% and 23.3% and 15.7% and 8.4%, the Δ weight [3, 17] was 1.8 and 3.0 and 2.6 (2×) and 3.3 and 2.0 and 1.5 (2×) and 3.9 and 3.2 and the weight ([3]; individual animals, day block 1 of 3 (day head not shown)) was 23.2 and 20.6 and 23.1 and 19.1 and 21.6 and 21.8 and 20.5 (2×) and 23.3 and 19.3. For the same substance, the “% of baseline (weight)” value [3, 18] was 103.3% and 116.7% and 109.7% and 122.9% and 103.1% and 104.0% and 106.1% and 114.0% and 108.4% and 103.7%, the volume [3, 18] was 106 and 638 (2×) and 463 and 399 and 767 and 663 and 257 and 246 and 588 and the weight [3, 18] was 22.1 and 20.7 and 22.4 and 19.5 and 20.2 and 21.1 and 19.0 (2×) and 21.8 and 18.4. The “Δ % (weight)” value [3, 18] was 3.3% and 16.7% and 9.7% and 22.9% and 3.1% and 4.0% and 6.1% and 14.0% and 8.4% and 3.7%, the Δ weight [3, 18] was 0.7 (2×) and 3.0 and 2.0 and 3.6 and 0.6 and 0.8 and 1.1 and 2.3 and 1.7 and the “% of baseline (weight)” value [3, 19] was 105.9% and 121.8% and 111.4% and 118.7% and 106.2% and 107.1% and 106.8% and 119.0% and 112.4% and 106.3%. For the same substance, the volume [3, 19] was 92 and 955 and 891 and 568 and 1324 and 804 and 379 and 273 and 1001 and 742, the weight [3, 19] was 22.7 and 21.5 and 22.8 and 18.8 and 20.8 and 21.7 and 19.1 and 19.8 and 22.6 and 18.9 and the “Δ % (weight)” value [3, 19] was 5.9% and 21.8% and 11.4% and 18.7% and 6.2% and 7.1% and 6.8% and 19.0% and 12.4% and 6.3%. The Δ weight [3, 19] was 1.3 and 3.9 and 2.3 and 3.0 and 1.2 (2×) and 1.4 and 3.2 and 2.5 and 1.1, the “effect of up-titration (reduced loading doses) on constitutional syndrome / side effects” value [4] was “mitigated” and the “cancer condition of patients” value (renal cancer) was “improves”.
